Laboratory results: the NIST ThermoML archive (doi:10.1021/je050414d)
Numbers after ± are expanded uncertainties.

Test: xn = mol fraction of the nth substance listed
Conditions: 101 kPa, Liquid; for viscosity: Capillary tube (Ostwald / Ubbelohde) method

CCOC(=O)OCC [diethyl carbonate] + CC(C)O
Conditions	mass density [kg/m3]	viscosity [mPa·s]
293.15 K, x1 = 0.1015	812.95 ± 2.5	1.586 ± 0.012
293.15 K, x1 = 0.1993	837.12 ± 2.3	1.252 ± 0.01
293.15 K, x1 = 0.3027	861.52 ± 2.1	1.073 ± 0.009
293.15 K, x1 = 0.4029	880.88 ± 1.9	0.946 ± 0.009
293.15 K, x1 = 0.5018	901.57 ± 1.7	0.865 ± 0.008
293.15 K, x1 = 0.5905	914.48 ± 1.6	0.827 ± 0.008
293.15 K, x1 = 0.7267	936.22 ± 1.4	0.791 ± 0.008
293.15 K, x1 = 0.8053	947.93 ± 1.3	0.781 ± 0.008
293.15 K, x1 = 0.8494	954.32 ± 1.2	0.782 ± 0.008
293.15 K, x1 = 1	975 ± 1	0.8 ± 0.008
298.15 K, x1 = 0.1015	808.12 ± 2.6	1.393 ± 0.011
298.15 K, x1 = 0.1993	831.98 ± 2.3	1.119 ± 0.009
298.15 K, x1 = 0.3027	855.03 ± 2.1	0.964 ± 0.009
298.15 K, x1 = 0.4029	875.34 ± 1.9	0.86 ± 0.008
298.15 K, x1 = 0.5018	893.55 ± 1.8	0.791 ± 0.008
298.15 K, x1 = 0.5905	908.68 ± 1.6	0.76 ± 0.008
298.15 K, x1 = 0.7267	930.3 ± 1.4	0.731 ± 0.008
298.15 K, x1 = 0.8053	941.94 ± 1.3	0.726 ± 0.008
298.15 K, x1 = 0.8494	948.31 ± 1.3	0.726 ± 0.008
298.15 K, x1 = 1	968.97 ± 1.1	0.746 ± 0.008
303.15 K, x1 = 0.1015	803.27 ± 2.6	1.223 ± 0.01
303.15 K, x1 = 0.1993	826.84 ± 2.4	0.996 ± 0.009
303.15 K, x1 = 0.3027	849.57 ± 2.2	0.867 ± 0.008
303.15 K, x1 = 0.4029	869.48 ± 2	0.782 ± 0.008
303.15 K, x1 = 0.5018	887.62 ± 1.8	0.726 ± 0.008
303.15 K, x1 = 0.5905	902.71 ± 1.7	0.7 ± 0.008
303.15 K, x1 = 0.7267	924.09 ± 1.5	0.677 ± 0.007
303.15 K, x1 = 0.8053	935.6 ± 1.4	0.674 ± 0.007
303.15 K, x1 = 0.8494	941.89 ± 1.3	0.676 ± 0.007
303.15 K, x1 = 1	962.39 ± 1.1	0.695 ± 0.008
313.15 K, x1 = 0.1015	793.12 ± 2.7	0.964 ± 0.009
313.15 K, x1 = 0.1993	816.46 ± 2.5	0.806 ± 0.008
313.15 K, x1 = 0.3027	839.13 ± 2.3	0.716 ± 0.008
313.15 K, x1 = 0.4029	859.2 ± 2.1	0.657 ± 0.007
313.15 K, x1 = 0.5018	877.18 ± 1.9	0.618 ± 0.007
313.15 K, x1 = 0.5905	892.18 ± 1.8	0.601 ± 0.007
313.15 K, x1 = 0.7267	913.63 ± 1.6	0.588 ± 0.007
313.15 K, x1 = 0.8053	925.25 ± 1.5	0.588 ± 0.007
313.15 K, x1 = 0.8494	931.59 ± 1.4	0.59 ± 0.007
313.15 K, x1 = 1	952.32 ± 1.2	0.61 ± 0.007
323.15 K, x1 = 0.1015	781.71 ± 2.8	0.78 ± 0.008
323.15 K, x1 = 0.1993	804.58 ± 2.6	0.668 ± 0.008
323.15 K, x1 = 0.3027	826.95 ± 2.4	0.604 ± 0.007
323.15 K, x1 = 0.4029	846.73 ± 2.2	0.562 ± 0.007
323.15 K, x1 = 0.5018	864.62 ± 2	0.535 ± 0.007
323.15 K, x1 = 0.5905	879.49 ± 1.9	0.524 ± 0.007
323.15 K, x1 = 0.7267	900.94 ± 1.7	0.517 ± 0.007
323.15 K, x1 = 0.8053	912.58 ± 1.6	0.519 ± 0.007
323.15 K, x1 = 0.8494	918.93 ± 1.5	0.521 ± 0.007
323.15 K, x1 = 1	939.78 ± 1.3	0.541 ± 0.007
333.15 K, x1 = 0.1015	771.12 ± 2.9	0.637 ± 0.007
333.15 K, x1 = 0.1993	793.64 ± 2.7	0.559 ± 0.007
333.15 K, x1 = 0.3027	815.77 ± 2.5	0.515 ± 0.007
333.15 K, x1 = 0.4029	835.41 ± 2.3	0.485 ± 0.007
333.15 K, x1 = 0.5018	853.29 ± 2.1	0.467 ± 0.007
333.15 K, x1 = 0.5905	868.1 ± 2	0.46 ± 0.007
333.15 K, x1 = 0.7267	889.56 ± 1.8	0.458 ± 0.007
333.15 K, x1 = 0.8053	901.29 ± 1.7	0.461 ± 0.007
333.15 K, x1 = 0.8494	907.67 ± 1.6	0.464 ± 0.007
333.15 K, x1 = 1	928.69 ± 1.4	0.483 ± 0.007
343.15 K, x1 = 0.1015	760.13 ± 3	0.523 ± 0.007
343.15 K, x1 = 0.1993	782.3 ± 2.8	0.47 ± 0.007
343.15 K, x1 = 0.3027	804.17 ± 2.6	0.44 ± 0.007
343.15 K, x1 = 0.4029	823.53 ± 2.4	0.421 ± 0.007
343.15 K, x1 = 0.5018	841.14 ± 2.2	0.41 ± 0.007
343.15 K, x1 = 0.5905	855.92 ± 2.1	0.407 ± 0.007
343.15 K, x1 = 0.7267	877.3 ± 1.9	0.409 ± 0.007
343.15 K, x1 = 0.8053	888.96 ± 1.8	0.413 ± 0.007
343.15 K, x1 = 0.8494	895.36 ± 1.7	0.417 ± 0.007
343.15 K, x1 = 1	916.33 ± 1.6	0.435 ± 0.007
